Values quoted from earlier work as cited in PMC6151550, “Inhibitory Effect of Selaginellins from Selaginella tamariscina (Beauv.) Spring against Cytochrome P450 and Uridine 5′-Diphosphoglucuronosyltransferase Isoforms on Human Liver Microsomes” (Molecules : A Journal of Synthetic Chemistry and Natural …, 2017).

Tests used:
UGT1A1 = tested on: UGT1A1; parameters: method as in PMID 25216634; conditions: read-out: Ki against UGT1A1-mediated SN-38 glucuronidation; cited from earlier work
CYP2C8 = conditions: cited from earlier work

| SMILES | Ki (UGT1A1) [µM] | IC50 (CYP2C8) [µM] |
| --- | --- | --- |
| CC(C)=CCc1cc2c(cc1O)oc(=O)c1c3ccc(O)cc3oc21 [psoralidin] | 5.8 | – |
| Cc1c(C)c2c(c(C)c1O)CCC(C)(COc1ccc(CC3SC(=O)NC3=O)cc1)O2 (stereo not drawn) [troglitazone] | – | 2.3 |
